According to patent US20250034136A1 (Nimbus Wadjet, Inc., priority 2023, published 2025):
pEC50, pIC50: −log10 of the molar value.

Experiments:
[1] = target: WRN (BV08), human Werner helicase (Uniprot Q14191, amino acids 517-1235 with L1074F point mutation) (Homo sapiens (Human), UniProt Q14191, L1074F); assay: WRN (BV08) ADP-Glo assay; assay type: biochemical; conditions: class symbols A-E, read-out: ADP-Glo_hWRN_IC50
[2] = test system: p21 induction in HCT116 cells; assay: p21 induction in HCT116 cells; assay type: cell-based; conditions: Homo sapiens, HCT-116, 24 h, HCT116 cells, 24 h compound incubation; read-out: P21_EC50
How it was run: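 EC50 from non-linear curve fit of p21 immunofluorescence (800 nm), with GAPDH (700 nm) read alongside. DMSO and a reference WRN inhibitor served as low and high controls. Cells (2,000/well) got 11 compound concentrations in duplicate for 24 h at 37 °C.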

Sequence of WRN (BV08), human Werner helicase (Uniprot Q14191, amino acids 517-1235 with L1074F point mutation) (Q14191 other isoform, or with tags, fused parts or gaps L1074F (already in the parent)): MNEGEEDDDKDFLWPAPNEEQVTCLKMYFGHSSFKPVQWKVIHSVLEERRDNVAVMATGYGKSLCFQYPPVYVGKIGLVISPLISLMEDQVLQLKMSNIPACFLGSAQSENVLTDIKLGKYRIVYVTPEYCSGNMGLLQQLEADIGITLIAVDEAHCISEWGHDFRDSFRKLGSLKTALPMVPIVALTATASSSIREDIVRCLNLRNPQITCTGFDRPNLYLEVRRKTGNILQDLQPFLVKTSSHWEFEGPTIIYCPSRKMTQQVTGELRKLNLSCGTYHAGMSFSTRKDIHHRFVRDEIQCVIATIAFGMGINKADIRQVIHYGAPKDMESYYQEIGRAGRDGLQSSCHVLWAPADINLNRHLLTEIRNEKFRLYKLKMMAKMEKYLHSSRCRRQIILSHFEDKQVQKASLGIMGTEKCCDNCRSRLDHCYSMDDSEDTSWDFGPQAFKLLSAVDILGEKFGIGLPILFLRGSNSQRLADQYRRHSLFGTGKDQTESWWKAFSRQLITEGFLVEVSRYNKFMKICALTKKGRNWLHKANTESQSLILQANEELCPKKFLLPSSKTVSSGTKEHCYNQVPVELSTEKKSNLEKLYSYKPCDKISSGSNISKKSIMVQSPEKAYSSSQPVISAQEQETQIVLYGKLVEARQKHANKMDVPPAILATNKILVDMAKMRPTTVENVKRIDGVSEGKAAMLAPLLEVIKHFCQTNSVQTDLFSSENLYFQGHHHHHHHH

Structure (SMILES) | pIC50 [1] | pEC50 [2]
CCc1c(N2CCN(C(=O)c3c(OC)ncc(C)c3O)[C@H]3CC[C@@H]32)c(=O)c2nc(C)c(C)nc2n1CC(=O)Nc1ccc(C(F)(F)F)cc1Cl [I-127, N-[2-chloro-4-(trifluoromethyl)phenyl]-2-{6-ethyl-7-[(1S,6S)-5-(4-hydroxy-2-methoxy-5-methylpyridine-3-carbonyl)-2,5-diazabicyclo[4.2.0]octan-2-yl]-2,3-dimethyl-8-oxo-5H,8H-pyrido[2,3-b]pyrazin-5-yl}acetamide] | 7.30 to 8.30 | > 6.30
CCc1c(N2CCN(C(=O)c3ncnc(C)c3O)[C@H]3CC[C@@H]32)c(=O)c2nc(C)c(C)nc2n1CC(=O)Nc1ccc(C(F)(F)F)cc1F [I-128, 2-(6-ethyl-7-((1S,6S)-5-(5-hydroxy-6-methylpyrimidine-4-carbonyl)-2,5-diazabicyclo[4.2.0]octan-2-yl)-2,3-dimethyl-8-oxopyrido[2,3-b]pyrazin-5(8H)-yl)-N-(2-fluoro-4-(trifluoromethyl)phenyl)acetamide] | 7.30 to 8.30 | > 6.30
CCc1c(N2CCN(C(=O)c3ncnc(C)c3O)[C@H]3CC[C@@H]32)c(=O)c2nc(N(C)C)c(C)nc2n1CC(=O)Nc1ccc(C(F)(F)F)cc1F [I-129] | 7.30 to 8.30 | > 6.30
CCc1c(N2CCN(C(=O)c3ncnc(C)c3O)[C@H]3CCC[C@@H]32)c(=O)c2nc(N(C)C)cnc2n1CC(=O)Nc1ccc(C(F)(F)F)cc1Cl [I-130, 2-{7-[(4aS,7aS)-4-(5-hydroxy-6-methylpyrimidine-4-carbonyl)-octahydro-1H-cyclopenta[b]pyrazin-1-yl]-2-(dimethylamino)-6-ethyl-8-oxo-5H,8H-pyrido[2,3-b]pyrazin-5-yl}-N-[2-chloro-4-(trifluoromethyl)phenyl]acetamide] | 7.30 to 8.30 | > 6.30
CCc1c(N2CCN(C(=O)c3ncnc(C)c3O)CC2)c(=O)c2nc(N(C)C3CCC3)cnc2n1CC(=O)Nc1ccc(C(F)(F)F)cc1Cl [I-131, N-[2-chloro-4-(trifluoromethyl)phenyl]-2-{2-[cyclobutyl(methyl)amino]-6-ethyl-7-[4-(5-hydroxy-6-methylpyrimidine-4-carbonyl)piperazin-1-yl]-8-oxo-5H,8H-pyrido[2,3-b]pyrazin-5-yl}acetamide] | 7.30 to 8.30 | 5.70 to 6.30
CCc1c(N2CCN(C(=O)c3ncnc(C)c3O)CC2)c(=O)c2nc(N(C)C)cnc2n1CC(=O)Nc1ccc(S(F)(F)(F)(F)F)cc1Cl [I-132, N-[2-chloro-4-(pentafluoro-lambda6-sulfanyl)phenyl]-2-[2-(dimethylamino)-6-ethyl-7-[4-(5-hydroxy-6-methylpyrimidine-4-carbonyl)piperazin-1-yl]-8-oxo-5H,8H-pyrido[2,3-b]pyrazin-5-yl]acetamide] | 7.30 to 8.30 | > 6.30
CCc1c(N2CCN(C(=O)c3ncnc(C)c3O)CC2)c(=O)c2nc(N(C)C)cnc2n1CC(=O)Nc1c(F)cc(C(F)(F)F)cc1Cl [I-133, N-[2-chloro-6-fluoro-4-(trifluoromethyl)phenyl]-2-[2-(dimethylamino)-6-ethyl-7-[4-(5-hydroxy-6-methylpyrimidine-4-carbonyl)piperazin-1-yl]-8-oxo-5H,8H-pyrido[2,3-b]pyrazin-5-yl]acetamide] | 7.30 to 8.30 | < 5.30
CCc1c(N2CCN(C(=O)c3ncnc(C)c3O)CC2)c(=O)c2nc(/C=C/C(=O)N(C)C)cnc2n1CC(=O)Nc1ccc(C(F)(F)F)cc1Cl [I-134, (2E)-3-[5-({[2-chloro-4-(trifluoromethyl)phenyl]carbamoyl}methyl)-6-ethyl-7-[4-(5-hydroxy-6-methylpyrimidine-4-carbonyl)piperazin-1-yl]-8-oxo-5H,8H-pyrido[2,3-b]pyrazin-2-yl]-N,N-dimethylprop-2-enamide] | 7.00 to 7.30 | < 5.30
CCc1c(N2CCN(C(=O)c3ncnc(C)c3O)CC2)c(=O)c2nc(-c3ccnn3C)cnc2n1CC(=O)Nc1ccc(C(F)(F)F)cc1Cl [I-137, N-[2-chloro-4-(trifluoromethyl)phenyl]-2-{6-ethyl-7-[4-(5-hydroxy-6-methylpyrimidine-4-carbonyl)piperazin-1-yl]-2-(1-methyl-1H-pyrazol-5-yl)-8-oxo-5H,8H-pyrido[2,3-b]pyrazin-5-yl}acetamide] | 7.30 to 8.30 | < 5.30
CCc1c(N2CCN(C(=O)c3ncnc(C)c3O)CC2)c(=O)c2nc(/C=C/C(C)(C)O)cnc2n1CC(=O)Nc1ccc(C(F)(F)F)cc1Cl [I-138, N-[2-chloro-4-(trifluoromethyl)phenyl]-2-{6-ethyl-2-[(1E)-3-hydroxy-3-methylbut-1-en-1-yl]-7-[4-(5-hydroxy-6-methylpyrimidine-4-carbonyl)piperazin-1-yl]-8-oxo-5H,8H-pyrido[2,3-b]pyrazin-5-yl}acetamide] | 7.30 to 8.30 | < 5.30
CCc1c(N2CCN(C(=O)c3ncnc(C)c3O)CC2)c(=O)c2nc(OC3COC3)cnc2n1CC(=O)Nc1ccc(C(F)(F)F)cc1Cl [I-140, N-[2-chloro-4-(trifluoromethyl)phenyl]-2-{6-ethyl-7-[4-(5-hydroxy-6-methylpyrimidine-4-carbonyl)piperazin-1-yl]-2-(oxetan-3-yloxy)-8-oxo-5H,8H-pyrido[2,3-b]pyrazin-5-yl}acetamide] | < 6.30 | < 5.30
CCc1c(N2CCN(C(=O)c3ncnc(C)c3O)CC2)c(=O)c2nc(OC3CCC3)cnc2n1CC(=O)Nc1ccc(C(F)(F)F)cc1Cl [I-141, N-[2-chloro-4-(trifluoromethyl)phenyl]-2-{2-cyclobutoxy-6-ethyl-7-[4-(5-hydroxy-6-methylpyrimidine-4-carbonyl)piperazin-1-yl]-8-oxo-5H,8H-pyrido[2,3-b]pyrazin-5-yl}acetamide] | 7.30 to 8.30 | < 5.30

Next, values leading:

pIC50 [1] | pEC50 [2] | Structure (SMILES)
≥ 8.30 | 5.70 to 6.30 | CCc1c(N2CCN(C(=O)c3ncnc(C)c3O)CC2)c(=O)c2nc(/C=C3\CCC3C)cnc2n1CC(=O)Nc1ccc(C(F)(F)F)cc1Cl (stereo not shown) [I-142, N-[2-chloro-4-(trifluoromethyl)phenyl]-2-{6-ethyl-7-[4-(5-hydroxy-6-methylpyrimidine-4-carbonyl)piperazin-1-yl]-2-[(2-methylcyclobutylidene)methyl]-8-oxo-5H,8H-pyrido[2,3-b]pyrazin-5-yl}acetamide]
≥ 8.30 | 5.70 to 6.30 | CCc1c(N2CCN(C(=O)c3ncnc(C)c3O)CC2)c(=O)c2nc(/C=C/C3CCC3)cnc2n1CC(=O)Nc1ccc(C(F)(F)F)cc1Cl [I-144, N-[2-chloro-4-(trifluoromethyl)phenyl]-2-{2-[(1E)-2-cyclobutylethenyl]-6-ethyl-7-[4-(5-hydroxy-6-methylpyrimidine-4-carbonyl)piperazin-1-yl]-8-oxo-5H,8H-pyrido[2,3-b]pyrazin-5-yl}acetamide]
7.30 to 8.30 | < 5.30 | CCc1c(N2CCN(C(=O)c3c(C#N)cnc(C)c3O)CC2)c(=O)c2ncc(C)nc2n1CC(=O)Nc1ccc(C(F)(F)F)cc1Cl [I-145, N-[2-chloro-4-(trifluoromethyl)phenyl]-2-{7-[4-(5-cyano-3-hydroxy-2-methylpyridine-4-carbonyl)piperazin-1-yl]-6-ethyl-3-methyl-8-oxo-5H,8H-pyrido[2,3-b]pyrazin-5-yl}acetamide]
7.30 to 8.30 | < 5.30 | CCc1c(N2CCCN(C(=O)c3ncnc(C)c3O)CC2)c(=O)c2nc(N(C)C)cnc2n1CC(=O)Nc1ccc(C(F)(F)F)cc1Cl [I-147, N-[2-chloro-4-(trifluoromethyl)phenyl]-2-[2-(dimethylamino)-6-ethyl-7-[4-(5-hydroxy-6-methylpyrimidine-4-carbonyl)-1,4-diazepan-1-yl]-8-oxo-5H,8H-pyrido[2,3-b]pyrazin-5-yl]acetamide]
7.30 to 8.30 | < 5.30 | CCc1c(N2CCN(C(=O)c3ncnc(C)c3O)CC2)c(=O)c2nc(N(C)C)cnc2n1CC(=O)Nc1c(F)cc(C(F)(F)F)cc1F [I-148, N-[2,6-difluoro-4-(trifluoromethyl)phenyl]-2-[2-(dimethylamino)-6-ethyl-7-[4-(5-hydroxy-6-methylpyrimidine-4-carbonyl)piperazin-1-yl]-8-oxo-5H,8H-pyrido[2,3-b]pyrazin-5-yl]acetamide]
7.30 to 8.30 | 5.70 to 6.30 | CCc1c(N2CCN(C(=O)c3ncnc(C)c3O)CC2)c(=O)c2nc(N3CCC[C@@H]3C)cnc2n1CC(=O)Nc1ccc(C(F)(F)F)cc1Cl [I-149, N-[2-chloro-4-(trifluoromethyl)phenyl]-2-{6-ethyl-7-[4-(5-hydroxy-6-methylpyrimidine-4-carbonyl)piperazin-1-yl]-2-[(2S)-2-methylpyrrolidin-1-yl]-8-oxo-5H,8H-pyrido[2,3-b]pyrazin-5-yl}acetamide]
7.30 to 8.30 | 5.70 to 6.30 | CCc1c(N2CCN(C(=O)c3ncnc(C)c3O)CC2)c(=O)c2nc(N3CCC[C@H]3C)cnc2n1CC(=O)Nc1ccc(C(F)(F)F)cc1Cl [I-150, N-[2-chloro-4-(trifluoromethyl)phenyl]-2-{6-ethyl-7-[4-(5-hydroxy-6-methylpyrimidine-4-carbonyl)piperazin-1-yl]-2-[(2R)-2-methylpyrrolidin-1-yl]-8-oxo-5H,8H-pyrido[2,3-b]pyrazin-5-yl}acetamide]
7.30 to 8.30 | 5.30 to 5.70 | CCc1c(N2CCN(C(=O)c3ncnc(C)c3O)CC2)c(=O)c2nc(N3CCC4(CCC4)C3)cnc2n1CC(=O)Nc1ccc(C(F)(F)F)cc1Cl [I-151, 2-(2-{6-azaspiro[3.4]octan-6-yl}-6-ethyl-7-[4-(5-hydroxy-6-methylpyrimidine-4-carbonyl)piperazin-1-yl]-8-oxo-5H,8H-pyrido[2,3-b]pyrazin-5-yl)-N-[2-chloro-4-(trifluoromethyl)phenyl]acetamide]
